Patent US10638755B2, “Antimicrobial compositions” (Symrise AG, priority 2013, dated 2020)
Read-outs that look alike come from different tables or passages of the source. Values belong to the molecule of their own block, whether it stands above or below them.

Experiments:
[1] = system: Staphylococcus aureus; test: Minimum inhibitory concentration (MIC) according to DIN 58940 and Kull Synergy Index; type: cell-based; conditions: for MIC: Staphylococcus aureus
[2] = system: Candida albicans; test: as above; type: cell-based; conditions: for MIC: Candida albicans
[3] = system: Aspergillus brasiliensis; test: as above; type: cell-based; conditions: for MIC: Aspergillus brasiliensis
[4] = system: Pseudomonas aeruginosa; test: as above; type: cell-based; conditions: for MIC: Pseudomonas aeruginosa
[5] = system: Escherichia coli; test: as above; type: cell-based; conditions: for MIC: Escherichia coli
[6] = system: A. brasiliensis; test: Colony counts in formulation over 28 days and Kull Synergy Index against A. brasiliensis; type: cell-based, Aspergillus brasiliensis
Description: To calculate the synergism between compounds of formula (I) and other antimicrobial actives, the Kull equation^1 2 was used SI=(Cmixture×PA)/CA+(Cmixture×PB)/CB (I) where • SI is the Synergy Index according to Kull^1), 2) • CA is the cell count for substance A • CB is the cell count for substance B • Cmixture is the cell count for the mixture of substances A and B • PA is the proportion of the substance A in the mixture • PB is the proportion of the substance B in the mixture.
Colony counts of <100 were arbitrarily set to 100, in order to allow for synergy calculations with the above equation. The abbreviation “n.a.” means not applicable.

[7] = system: mold; conditions: moist alfalfa hay; Agronomy Journal 1955; cited from earlier work
[8] = system: subcuteaneous inflammation; conditions: administered intraperitoneally; Il Farmaco 2000; cited from earlier work
[9] = chemical in vitro assay; constituents of Tagetes mendocina; cited from earlier work
[10] = day 0, 1.0% (total) in formulation
[11] = day 2, 1.0% (total) in formulation
[12] = day 7, 1.0% (total) in formulation
[13] = day 14, 1.0% (total) in formulation
[14] = day 28, 1.0% (total) in formulation

MIC ([1]; DIN 58940): 6000 µg/mL | MIC ([2]; DIN 58940): 6000 µg/mL | MIC ([3]; DIN 58940): 4000 µg/mL | MIC ([4]; DIN 58940): 4000 µg/mL | MIC ([5]; DIN 58940): 4000 µg/mL
SMILES: CC(=O)c1ccc(O)cc1 [4HAP, 4-hydroxyacetophenone]
Colony counts [6, 10]: 300.000 cfu/g formulation | Relative colony counts [6, 10]: 1.0000 | Colony counts [6, 11]: 56.000 cfu/g formulation | Relative colony counts [6, 11]: 0.1867 | Colony counts [6, 12]: 1.900 cfu/g formulation | Relative colony counts [6, 12]: 0.0063 | Colony counts [6, 13]: 1.900 cfu/g formulation | Relative colony counts [6, 13]: 0.0063 | Colony counts [6, 14]: <100 cfu/g formulation | Relative colony counts [6, 14]: 0.0003 | prevention of mold growth [7]: not prevent mold growth | anti-inflammatory activity [8]: reducing subcuteaneous inflammation | antioxidant activity [9]: one of the active constituents

MIC ([1]; DIN 58940): 2000 µg/mL | MIC ([2]; DIN 58940): 5000 µg/mL | MIC ([3]; DIN 58940): 2000 µg/mL | MIC ([4]; DIN 58940): 2000 µg/mL | MIC ([5]; DIN 58940): 2000 µg/mL
SMILES: OCCCc1ccccc1 [3-Phenylpropanol]

MIC values Staphylococcus aureus ([1]; DIN 58940): 20000 ppm | MIC values Candida albicans ([2]; DIN 58940): 20000 ppm | MIC values Aspergillus brasiliensis ([3]; DIN 58940): 20000 ppm | MIC values Pseudomonas aeruginosa ([4]; DIN 58940): 20000 ppm | MIC values Escherichia coli ([5]; DIN 58940): 10000 ppm
SMILES: OCC(O)COCc1ccccc1 (stereo not drawn) [Benzylglycerin]

MIC ([1]; DIN 58940): 5000 µg/mL | MIC ([2]; DIN 58940): 5000 µg/mL | MIC ([3]; DIN 58940): 1000 µg/mL | MIC ([4]; DIN 58940): 5000 µg/mL | MIC ([5]; DIN 58940): 2500 µg/mL
SMILES: CCCCCCC(O)CO (stereo not drawn) [1,2-Octanediol]

The remaining lines, values behind:

SMILES: CCCCCCCCOCC(O)CO (stereo not drawn) [Octylglycerin]
MIC values Staphylococcus aureus ([1]; DIN 58940): 1000 ppm | MIC values Candida albicans ([2]; DIN 58940): 1000 ppm | MIC values Aspergillus brasiliensis ([3]; DIN 58940): 500 ppm | MIC values Pseudomonas aeruginosa ([4]; DIN 58940): >2000 ppm | MIC values Escherichia coli ([5]; DIN 58940): 1000 ppm

SMILES: CCCCC(CC)COCC(O)CO (stereo not drawn) [EHG, ethylhexyl glycerin]
Colony counts [6, 10]: 315.000 cfu/g formulation | Relative colony counts [6, 10]: 0.5048 | Colony counts [6, 11]: 159.000 cfu/g formulation | Relative colony counts [6, 11]: 0.4762 | Colony counts [6, 12]: 150.000 cfu/g formulation | Relative colony counts [6, 12]: 0.9635 | Colony counts [6, 13]: 304.000 cfu/g formulation | Relative colony counts [6, 13]: 0.9635 | Colony counts [6, 14]: 304.000 cfu/g formulation | Relative colony counts [6, 14]: 0.5048 | MIC values Staphylococcus aureus [1]: 2000 ppm | MIC values Candida albicans [2]: 2000 ppm | MIC values Aspergillus brasiliensis [3]: 2000 ppm | MIC values Pseudomonas aeruginosa [4]: >20000 ppm | MIC values Escherichia coli [5]: 2500 ppm

SMILES: CCCCCCOC[C@@H](O)CO [Hexylglycerin]
MIC values Staphylococcus aureus ([1]; DIN 58940): 6000 ppm | MIC values Candida albicans ([2]; DIN 58940): 6000 ppm | MIC values Aspergillus brasiliensis ([3]; DIN 58940): 4000 ppm | MIC values Pseudomonas aeruginosa ([4]; DIN 58940): 6000 ppm | MIC values Escherichia coli ([5]; DIN 58940): 4000 ppm

SMILES: CCCCCCCOCC(O)CO (stereo not drawn) [Heptylglycerin]
MIC values Staphylococcus aureus ([1]; DIN 58940): 2500 ppm | MIC values Candida albicans ([2]; DIN 58940): 2000 ppm | MIC values Aspergillus brasiliensis ([3]; DIN 58940): 1000 ppm | MIC values Pseudomonas aeruginosa ([4]; DIN 58940): 5000 ppm | MIC values Escherichia coli ([5]; DIN 58940): 2000 ppm

SMILES: CCCCC(O)CO (stereo not drawn) [HD, 1,2-Hexanediol]
Colony counts ([6]; day 0, 3.0% in formulation): 305.000 cfu/g formulation | Relative colony counts ([6]; day 0, 3.0% in formulation): 1.0000 | Colony counts ([6]; day 2, 3.0% in formulation): 306.000 cfu/g formulation | Relative colony counts ([6]; day 2, 3.0% in formulation): 1.0033 | Colony counts ([6]; day 7, 3.0% in formulation): 266.000 cfu/g formulation | Relative colony counts ([6]; day 7, 3.0% in formulation): 0.8721 | Colony counts ([6]; day 14, 3.0% in formulation): 96.000 cfu/g formulation | Relative colony counts ([6]; day 14, 3.0% in formulation): 0.3148 | Colony counts ([6]; day 28, 3.0% in formulation): <100 cfu/g formulation | Relative colony counts ([6]; day 28, 3.0% in formulation): 0.0003 | MIC ([1]; DIN 58940): 20000 µg/mL | MIC ([2]; DIN 58940): 20000 µg/mL | MIC ([3]; DIN 58940): 10000 µg/mL | MIC ([4]; DIN 58940): 10000 µg/mL | MIC ([5]; DIN 58940): 10000 µg/mL

SMILES: CCCCCCCOCC(O)CO (stereo not drawn) [3HOPD, 3-heptyloxy-1,2-propanediol]
Colony counts [6, 10]: 220.000 cfu/g formulation | Relative colony counts [6, 10]: 1.0000 | Colony counts [6, 11]: 320.000 cfu/g formulation | Relative colony counts [6, 11]: 1.4545 | Colony counts [6, 12]: 340.000 cfu/g formulation | Relative colony counts [6, 12]: 1.5455 | Colony counts [6, 13]: 300.000 cfu/g formulation | Relative colony counts [6, 13]: 1.3636 | Colony counts [6, 14]: 170.000 cfu/g formulation | Relative colony counts [6, 14]: 0.7727

SMILES: OCCCO [1,3-Propanediol]
MIC values Staphylococcus aureus ([1]; DIN 58940): 125000 ppm | MIC values Candida albicans ([2]; DIN 58940): 100000 ppm | MIC values Aspergillus brasiliensis ([3]; DIN 58940): 150000 ppm | MIC values Pseudomonas aeruginosa ([4]; DIN 58940): 100000 ppm | MIC values Escherichia coli ([5]; DIN 58940): 100000 ppm
